In paper PMC11195807, “Development of a multi-targeted chemotherapeutic approach based on G-quadruplex stabilisation and carbonic anhydrase inhibition” (Journal of Enzyme Inhibition and Medicinal Chemistry, 2024):

What was measured:
hCA II = target: T1, hCA II (Homo sapiens, UniProt P00918); assay: stopped-flow CO2 hydrase assay, hCA II; assay type: biochemical
T1 construct: made in house
Excerpt: . The structure-activity relationship is discussed separately for the two compound subsets. Another code pattern is included for the MTDLs in Table 1, which indicates the derivative CAI type (sulphonamide, S or coumarin, C) and the number of atoms in the spacers connecting either berberine and the triazole (carbon atoms) or the triazole and the benzenesulfonamide/coumarin scaffolds (carbon or oxygen atoms).
An Applied Photophysics stopped-flow instrument has been used for assaying the CA-catalysed CO2 hydration activity, as reported earlier. The enzyme concentrations were in the range 5–12 nM. All hCA isoforms were recombinant proteins, being obtained in-house as reported earlier.

hCA XII = target: T2, hCA XII (Homo sapiens, UniProt O43570); assay: stopped-flow CO2 hydrase assay, hCA XII; assay type: biochemical; conditions: for Selectivity index (SI) I/XII: hCA XII over hCA I; for Selectivity index (SI) II/XII: hCA XII over hCA II; for Ki: mean ± SEM of three assays
T2 construct: made in house
T2 sequence (O43570 25-354): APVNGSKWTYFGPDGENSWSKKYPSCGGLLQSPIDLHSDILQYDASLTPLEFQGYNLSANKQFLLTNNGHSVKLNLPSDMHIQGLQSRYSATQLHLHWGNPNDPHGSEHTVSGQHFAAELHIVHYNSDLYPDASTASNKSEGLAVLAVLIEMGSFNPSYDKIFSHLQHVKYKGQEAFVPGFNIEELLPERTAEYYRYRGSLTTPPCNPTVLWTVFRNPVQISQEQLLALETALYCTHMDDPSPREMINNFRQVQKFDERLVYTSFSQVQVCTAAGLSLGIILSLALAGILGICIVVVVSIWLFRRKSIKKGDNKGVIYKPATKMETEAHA
Excerpt: An Applied Photophysics stopped-flow instrument has been used for assaying the CA-catalysed CO2 hydration activity, as reported earlier. […] All hCA isoforms were recombinant proteins, being obtained in-house as reported earlier.

c-Myc = assay: CD melting experiments, c-Myc GQ; assay type: binding; conditions: for ΔT1/2 c-Myc: 1 molar equiv compound, T1/2 of DNA alone 70.0 °C; for ΔΔT1/2 c-Myc: ΔT1/2 of compound minus ΔT1/2 of berberine, 1 molar equiv
F-c-Kit1-T GQ = assay: FRET melting competition experiments; assay type: binding; conditions: 2 molar equiv ligand; for ΔT1/2 F-c-Kit1-T + Hairpin (1:15): 15 molar equiv unlabelled Hairpin; for ΔT1/2 F-c-Kit1-T + Hairpin (1:50): 50 molar equiv unlabelled Hairpin; for ΔT1/2 F-c-Kit1-T: no competitor
Excerpt: FRET melting analysis was used to further estimate the GQ over duplex selectivity of the selected compounds[53]. The GQ-forming oligonucleotide c-Kit1 labelled with FAM and TAMRA (F-c-Kit1-T) was employed because, among the parallel GQs used in this study (c-Kit1 and c-Myc), it was the only one with a lower T1/2 than the hairpin DNA duplex competitor (Hairpin), thus allowing proper estimation of the GQ-stabilising properties of the ligands in the presence of a large excess of the unlabelled (non-fluorescent) competitor. […] The sulphonamide S-3,2 was also considered since the crystal structure of such MTDL in complex with Tel23 was successfully obtained. Results of these experiments (Figure S9, Supporting Information and Table 3) confirmed that these compounds are efficient GQ stabilisers.
Measurements were carried out on an FP-8300 spectrofluorometer equipped with a Peltier temperature controller system (PCT-818). The dual-labelled GQ-forming FAM-[d([…])]-TAMRA sequence (F-c-Kit1-T), supplied by biomers.net GmbH (Ulm, Germany), was used for the experiments without further purification. […] The experiments were carried out in sealed quartz cuvettes with a path length of 1 cm, by using 0.2 μM GQ-forming oligonucleotide without or with 0.4 μM of each compound, and the unlabelled competitor (Hairpin) at 0, 3, and 10 μM final concentrations. FRET melting experiments were performed in the range 15–90 °C, with 0.2 °C/min heating rate, by monitoring the emission of FAM at 520 nm (upon excitation at 492 nm). Both excitation and emission slits were set to 5 nm. The emission intensity of FAM was then normalised between 0 and 1. Fluorescence emission spectra were acquired before (at 15 °C) and after (at 90 °C) the melting assay, in the range 500–650 nm, with a 100 nm/s scan speed. Data analysis was performed using OriginPro 2021 software.

Hairpin = assay: CD melting experiments, hairpin DNA duplex; conditions: 2 molar equiv compound, T1/2 of DNA alone 66.0 °C
Procedure: To evaluate the possible binding and stabilisation of double-stranded DNA, a 27-nt long hairpin-forming sequence (Hairpin) was employed.
In particular, the following DNA sequences were synthesised and employed for the experiments: d([sequence]) (c-Kit1), d([sequence]) (c-Myc), d([sequence]) (Tel23), and d([sequence]) (Hairpin). Oligonucleotides were dissolved in the proper buffer and their concentration was measured by UV absorption at 90 °C, as previously reported[80]^,[81]. To achieve the correct folding of the sequences, the DNA solutions were heated in a water bath at 90 °C for 5 min, and then allowed to cool slowly to room temperature overnight. Then, DNA samples were stored at 4 °C for 24 h, before data acquisition.
The samples were prepared by dissolving the oligonucleotides in 5 mM KH2PO4/K2HPO4 buffer (pH 7.0) containing 20 mM KCl (or LiCl in the case of c-Myc because of its high thermal stability). DNA concentrations of 20 µM for GQs and 30 µM for Hairpin were used. For each compound, a 10 mM stock solution in 100% DMSO was prepared. […] CD spectra were acquired at 20 and 100 °C, in the 230–320 nm wavelength range, averaged over three scans and subtracted of the buffer baseline. The scanning speed was set to 100 nm/min, with a 0.5 s response time, and 1 nm bandwidth. CD melting experiments were carried out in the 20–100 °C temperature range, with 1 °C/min heating rate, by following changes in the CD signal at the wavelengths of the maximum CD intensity (i.e. 263 nm for c-Kit1 and c-Myc, and 290 nm for Tel23). As for Hairpin, CD melting curves were recorded by following the changes in the CD signal at 252 nm (the wavelength of the minimum CD intensity). CD melting curves were normalised between 0 and 1. […] The ΔT1/2 values correspond to the difference in the T1/2 values of the nucleic acid structures in the presence and absence of the compounds. All experiments were performed in duplicate, and the reported values are the mean of the two measurements.

[1] = sulphonamides, inhibitor-enzyme incubation 15 min, mean ± SEM of three assays
[2] = sulphonamides, inhibitor-enzyme incubation 15 min
[3] = coumarins, inhibitor-enzyme incubation 6 h

| SMILES | Ki (hCA II; [1]) [nM] | Selectivity index (SI) I/XII (hCA XII) | Selectivity index (SI) II/XII (hCA XII) | Ki (hCA XII; [2]) [nM] | Ki (hCA II; [3]) [nM] | Ki (hCA XII; [3]) [nM] | ΔT1/2 c-Myc (c-Myc) [°C] | ΔΔT1/2 c-Myc (c-Myc) [°C] | ΔT1/2 F-c-Kit1-T + Hairpin (1:15) (F-c-Kit1-T GQ) [°C] | ΔT1/2 F-c-Kit1-T + Hairpin (1:50) (F-c-Kit1-T GQ) [°C] | ΔT1/2 F-c-Kit1-T (F-c-Kit1-T GQ) [°C] | ΔT1/2 Hairpin (Hairpin) | ΔΔT1/2 c-Myc (c-Myc; listed as C-5,2) [°C] | ΔΔT1/2 c-Myc (c-Myc; listed as S-4,0) [°C] | ΔΔT1/2 c-Myc (c-Myc; listed as S-2,0) [°C] |
| --- | --- | --- | --- | --- | --- | --- | --- | --- | --- | --- | --- | --- | --- | --- | --- |
| COc1ccc2cc3[n+](cc2c1OCCCn1cc(COc2ccc(S(N)(=O)=O)cc2)nn1)CCc1cc2c(cc1-3)OCO2 [Compound 29, 10-Methoxy-9–(3-(4-((4-sulfamoylphenoxy)methyl)-1H-1,2,3-triazol-1-yl)propoxy)-5,6-dihydro-[1,3]dioxolo[4,5-g]isoquinolino[3,2-a]isoquinolin-7-ium hexafluorophosphate] | 62.3 ± 4.7 | 25.8 | 2.0 | 31.2 ± 2.5 |  |  | 16.5 | 4.5 | 12.8 | 13.2 | 13.2 | -0.5 °C |  |  |  |
| COc1ccc2cc3[n+](cc2c1OCCCCn1cc(COc2ccc4ccc(=O)oc4c2)nn1)CCc1cc2c(cc1-3)OCO2 [Compound 37, 10-Methoxy-9–(4-(4-(((2-oxo-2H-chromen-7-yl)oxy)methyl)-1H-1,2,3-triazol-1-yl)butoxy)-5,6-dihydro-[1,3]dioxolo[4,5-g]isoquinolino[3,2-a]isoquinolin-7-ium hexafluorophosphate] |  | > 1190 | > 1190 |  | > 100000 | 8.4 ± 0.5 | 13.0 | 1.0 | 12.8 | 12.6 | 12.0 | +0.5 °C |  |  |  |
| COc1ccc2cc3[n+](cc2c1OCCCCn1cc(-c2ccc(S(N)(=O)=O)cc2)nn1)CCc1cc2c(cc1-3)OCO2 [Compound 30, 10-Methoxy-9–(4–(4-(4-sulfamoylphenyl)-1H-1,2,3-triazol-1-yl)butoxy)-5,6-dihydro-[1,3]dioxolo[4,5-g]isoquinolino[3,2-a]isoquinolin-7-ium hexafluorophosphate] | 55.1 ± 3.8 | 23.2 | 2.2 | 25.5 ± 1.4 |  |  |  | >13.0 | 13.8 | 12.6 | 13.6 | -1.0 °C |  | > 13.0 |  |
| COc1ccc2cc3[n+](cc2c1OCCn1cc(-c2ccc(S(N)(=O)=O)cc2)nn1)CCc1cc2c(cc1-3)OCO2 [Compound 26, 10-Methoxy-9–(2-(4–(4-sulfamoylphenyl)-1H-1,2,3-triazol-1-yl)ethoxy)-5,6-dihydro-[1,3]dioxolo[4,5-g]isoquinolino[3,2-a]isoquinolin-7-ium hexafluorophosphate] | 59.4 ± 3.8 | 79.5 | 8.1 | 7.3 ± 0.5 |  |  |  | >13.0 | 10.2 | 12.4 | 12.4 | -0.5 °C |  |  | > 13.0 |

Continued, in another order:

| Ki (hCA II; [1]) [nM] | Selectivity index (SI) I/XII (hCA XII) | Selectivity index (SI) II/XII (hCA XII) | Ki (hCA XII; [2]) [nM] | Ki (hCA II; [3]) [nM] | Ki (hCA XII; [3]) [nM] | SMILES | ΔT1/2 c-Myc (c-Myc) [°C] | ΔΔT1/2 c-Myc (c-Myc) [°C] | ΔT1/2 F-c-Kit1-T + Hairpin (1:15) (F-c-Kit1-T GQ) [°C] | ΔT1/2 F-c-Kit1-T + Hairpin (1:50) (F-c-Kit1-T GQ) [°C] | ΔT1/2 F-c-Kit1-T (F-c-Kit1-T GQ) [°C] | ΔT1/2 Hairpin (Hairpin) | ΔΔT1/2 c-Myc (c-Myc; listed as C-5,2) [°C] | ΔΔT1/2 c-Myc (c-Myc; listed as S-4,0) [°C] | ΔΔT1/2 c-Myc (c-Myc; listed as S-2,0) [°C] |
| --- | --- | --- | --- | --- | --- | --- | --- | --- | --- | --- | --- | --- | --- | --- | --- |
|  | > 332.2 | > 332.2 |  | > 100000 | 30.1 ± 1.5 | COc1ccc2cc3[n+](cc2c1OCCCn1cc(COc2ccc4ccc(=O)oc4c2)nn1)CCc1cc2c(cc1-3)OCO2 [Compound 34, 10-Methoxy-9–(3-(4-(((2-oxo-2H-chromen-7-yl)oxy)methyl)-1H-1,2,3-triazol-1-yl)propoxy)-5,6-dihydro-[1,3]dioxolo[4,5-g]isoquinolino[3,2-a]isoquinolin-7-ium hexafluorophosphate] | 18.0 | 6.0 | 11.4 | 11.2 | 10.6 | +1.0 °C |  |  |  |
|  | > 497.5 | > 497.5 |  | > 100000 | 20.1 ± 1.3 | COc1ccc2cc3[n+](cc2c1OCCCCCn1cc(COc2ccc4ccc(=O)oc4c2)nn1)CCc1cc2c(cc1-3)OCO2 [Compound 39, 10-Methoxy-9-((5–(4-(((2-oxo-2H-chromen-7-yl)oxy)methyl)-1H-1,2,3-triazol-1-yl)pentyl)oxy)-5,6-dihydro-[1,3]dioxolo[4,5-g]isoquinolino[3,2-a]isoquinolin-7-ium hexafluorophosphate] |  | >13.0 | 13.2 | 14.0 | 14.6 | -1.0 °C | > 13.0 |  |  |
| 15.8 ± 1.2 | 31.3 | 0.9 | 18.3 ± 1 |  |  | COc1ccc2cc3[n+](cc2c1OCCCCCn1cc(-c2ccc(S(N)(=O)=O)cc2)nn1)CCc1cc2c(cc1-3)OCO2 [Compound 32, 10-Methoxy-9-((5–(4-(4-sulfamoylphenyl)-1H-1,2,3-triazol-1-yl)pentyl)oxy)-5,6-dihydro-[1,3]dioxolo[4,5-g]isoquinolino[3,2-a]isoquinolin-7-ium hexafluorophosphate] | 13.0 | 1.0 | 15.0 | 14.6 | 14.4 | -1.0 °C |  |  |  |
